Measurements taken from patent publication US20050171037A1, “Therapeutic combinations” (Agouron Pharmaceuticals, Inc., priority 2004, published 2005).
Like-named read-outs stand apart in the source and are kept apart here.

Assays:
[1] = Compound A pharmacokinetics after oral administration of a single dose with and without ritonavir, human subjects, fed; assay type: in vivo; conditions: for half-life / Cmax / AUC / Tmax: plasma, po; for half-life / Ae % (drug recovered unchanged in urine, percent of administered dose): arithmetic mean; for Cmax / AUC: geometric mean; for AUC: read-out: AUC (area under the concentration-time curve from time 0 to infinity); for Tmax: median
Description: Nos. 11/008325, filed Dec. 8, 2004, and 60/591,351, filed Jul. 26, 2004, all of which are hereby incorporated by reference for this purpose. A total of 30 human subjects were administered a single 100 mg, 300 mg, 800 mg, 1000 mg, 1500 mg, 2000 mg, or 3000 mg dose of a spray-dried composition comprising 90 wt % amorphous Compound A and 10 wt % hydroxypropyl methyl cellulose acetate succinate (HPMCAS), under fed conditions according to the schedule found in Table I. […] Each plasma sample was analyzed for the presence of Compound A and the following pharmacokinetic parameters for Compound A were determined for each subject: area under the concentration-time curve from time 0 extrapolated to infinity (AUC), maximum observed plasma concentration (Cmax), time to first occurrence of Cmax (Tmax), terminal phase plasma half-life (t1/2), and cumulative amount of drug recovered unchanged in the urine expressed as a percentage of administered dose (Ae %). The mean to t1/2 value for the 100 mg dose group was calculated from three subjects. The t1/2 values for three subjects at this dose level were deemed unreliable owing to poor estimates of the terminal phase rate constant from regressions (r^2 values less than 0.9) and, therefore, were not included in the summary statistics. Similarly, the th for one subject in the 800 mg dose group was deemed unreliable owing to poor estimate of the terminal phase rate constant from regression (r^2 values less than 0.9) and therefore was not included in the summary statistics.

[2] = as above; assay type: in vivo; conditions: for Ae % (drug recovered unchanged in urine, percent of administered dose): arithmetic mean
[3] = 100 mg, single oral dose 100 mg, without ritonavir
[4] = 300 mg, single oral dose 300 mg, without ritonavir
[5] = 800 mg, single oral dose 800 mg, without ritonavir
[6] = 1000 mg, single oral dose 1000 mg, without ritonavir
[7] = 1500 mg, single oral dose 1500 mg, without ritonavir
[8] = 2000 mg, single oral dose 2000 mg, without ritonavir
[9] = 3000 mg, single oral dose 3000 mg, without ritonavir
[10] = single oral dose 400 mg + ritonavir (100 mg every 12 hours for 3 doses)
[11] = single oral dose 800 mg + ritonavir (100 mg every 12 hours for 3 doses)

half-life ([1]; 100 mg, single oral dose 100 mg, without ritonavir, N = 3, read-out: t½ (terminal phase plasma half-life) (converted)): 8.63 h | Cmax [1, 3]: 160 ng/mL | AUC [1, 3]: 740 ng·h/mL | Tmax [1, 3]: 3 h | half-life ([1]; 300 mg, single oral dose 300 mg, without ritonavir, read-out: t½ (terminal phase plasma half-life) (converted)): 8.17 h | Cmax [1, 4]: 720 ng/mL | AUC [1, 4]: 3560 ng·h/mL | Tmax [1, 4]: 2.5 h | half-life ([1]; 800 mg, single oral dose 800 mg, without ritonavir, N = 5, read-out: t½ (terminal phase plasma half-life) (converted)): 11.7 h | Cmax [1, 5]: 3120 ng/mL | AUC [1, 5]: 15800 ng·h/mL | Tmax [1, 5]: 3 h | half-life ([1]; 1000 mg, single oral dose 1000 mg, without ritonavir, read-out: t½ (terminal phase plasma half-life) (converted)): 7.28 h | Cmax [1, 6]: 3350 ng/mL | AUC [1, 6]: 16900 ng·h/mL | Tmax [1, 6]: 3 h | half-life ([1]; 1500 mg, single oral dose 1500 mg, without ritonavir, read-out: t½ (terminal phase plasma half-life) (converted)): 9.17 h | Cmax [1, 7]: 7040 ng/mL | AUC [1, 7]: 41900 ng·h/mL | Tmax [1, 7]: 4 h | half-life ([1]; 2000 mg, single oral dose 2000 mg, without ritonavir, read-out: t½ (terminal phase plasma half-life) (converted)): 10.4 h | Cmax [1, 8]: 7490 ng/mL | AUC [1, 8]: 44200 ng·h/mL | Tmax [1, 8]: 2 h | half-life ([1]; 3000 mg, single oral dose 3000 mg, without ritonavir, read-out: t½ (terminal phase plasma half-life) (converted)): 7.6 h | Cmax [1, 9]: 11200 ng/mL | AUC [1, 9]: 86400 ng·h/mL | Tmax [1, 9]: 4 h | half-life ([1]; single oral dose 400 mg + ritonavir (100 mg every 12 hours for 3 doses), read-out: t½ (terminal phase plasma half-life) (converted)): 8.56 h | Cmax [1, 10]: 5210 ng/mL | Tmax [1, 10]: 3.51 h | half-life ([1]; single oral dose 800 mg + ritonavir (100 mg every 12 hours for 3 doses), read-out: t½ (terminal phase plasma half-life) (converted)): 8.39 h | Cmax [1, 11]: 7350 ng/mL | Tmax [1, 11]: 4 h | AUC ([2]; plasma, single oral dose 400 mg + ritonavir (100 mg every 12 hours for 3 doses), geometric mean, read-out: AUC (area under the concentration-time curve from time 0 to infinity)): 42500 ng·h/mL | AUC (area under the concentration-time curve from time 0 to infinity) ([2]; single oral dose 800 mg + ritonavir (100 mg every 12 hours for 3 doses), geometric mean): 71400 ng·h/mL
SMILES: C=CCNC(=O)[C@H]1N(C(=O)[C@@H](O)[C@H](Cc2ccccc2)NC(=O)c2cccc(O)c2C)CSC1(C)C [Compound A, (4R)-N-allyl-3-{(2S,3S)-2-hydroxy-3-[(3-hydroxy-2-methylbenzoyl)amino]-4-phenylbutanoyl}-5,5-dimethyl-1,3-thiazolidine-4-carboxamide]
Ae % (drug recovered unchanged in urine, percent of administered dose) ([1]; single oral dose 100 mg, without ritonavir): 1.34% | Ae % (drug recovered unchanged in urine, percent of administered dose) ([1]; single oral dose 300 mg, without ritonavir): 2.04% | Ae % (drug recovered unchanged in urine, percent of administered dose) ([1]; single oral dose 800 mg, without ritonavir): 4.00% | Ae % (drug recovered unchanged in urine, percent of administered dose) ([1]; single oral dose 1000 mg, without ritonavir): 4.21% | Ae % (drug recovered unchanged in urine, percent of administered dose) ([1]; single oral dose 2000 mg, without ritonavir): 7.92% | Ae % (drug recovered unchanged in urine, percent of administered dose) ([1]; single oral dose 3000 mg, without ritonavir): 9.05% | Ae % (drug recovered unchanged in urine, percent of administered dose) [2, 10]: 20.4% | Ae % (drug recovered unchanged in urine, percent of administered dose) [2, 11]: 19.4%
